Reference: PMC3813382 (The Journal of General Physiology, 2013)
Substitutions are numbered along the chain they refer to.

Experiments:
L209T Slo2.1 channels = biological target: T1, L209T Slo2.1 channels (Homo sapiens, UniProt Q6UVM3, L209T); assay: Activation of ISlo2.1 by NFA, two-electrode voltage clamp in oocytes; assay type: cell-based
T1 sequence (Q6UVM3 1-1135 L209T): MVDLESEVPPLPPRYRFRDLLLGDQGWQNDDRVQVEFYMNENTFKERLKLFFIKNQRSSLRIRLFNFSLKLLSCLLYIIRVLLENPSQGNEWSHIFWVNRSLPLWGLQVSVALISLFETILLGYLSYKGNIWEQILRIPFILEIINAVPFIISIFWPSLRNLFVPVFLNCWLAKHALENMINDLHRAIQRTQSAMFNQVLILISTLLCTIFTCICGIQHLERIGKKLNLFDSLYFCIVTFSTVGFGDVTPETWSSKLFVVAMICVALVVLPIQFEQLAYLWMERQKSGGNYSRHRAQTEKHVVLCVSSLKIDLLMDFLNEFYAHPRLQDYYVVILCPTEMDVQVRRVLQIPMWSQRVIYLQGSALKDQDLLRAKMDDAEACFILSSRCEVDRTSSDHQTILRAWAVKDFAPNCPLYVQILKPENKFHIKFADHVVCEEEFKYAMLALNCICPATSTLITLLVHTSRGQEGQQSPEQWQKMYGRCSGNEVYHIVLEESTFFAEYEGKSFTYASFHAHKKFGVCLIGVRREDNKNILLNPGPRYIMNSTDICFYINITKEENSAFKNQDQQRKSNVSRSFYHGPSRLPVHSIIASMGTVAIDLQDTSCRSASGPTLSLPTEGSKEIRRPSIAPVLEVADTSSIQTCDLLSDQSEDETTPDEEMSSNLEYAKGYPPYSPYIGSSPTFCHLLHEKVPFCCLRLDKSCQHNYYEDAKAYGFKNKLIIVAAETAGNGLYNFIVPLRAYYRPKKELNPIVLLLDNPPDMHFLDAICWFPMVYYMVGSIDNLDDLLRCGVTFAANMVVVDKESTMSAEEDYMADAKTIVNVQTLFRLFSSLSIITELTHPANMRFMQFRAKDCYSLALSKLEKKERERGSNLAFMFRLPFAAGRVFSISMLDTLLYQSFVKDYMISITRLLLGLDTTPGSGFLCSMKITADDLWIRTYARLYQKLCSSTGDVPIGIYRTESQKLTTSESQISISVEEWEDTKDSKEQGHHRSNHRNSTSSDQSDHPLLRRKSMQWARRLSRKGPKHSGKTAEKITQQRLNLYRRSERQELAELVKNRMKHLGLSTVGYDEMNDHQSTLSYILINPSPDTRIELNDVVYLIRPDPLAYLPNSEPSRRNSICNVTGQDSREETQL

A266G Slo2.1 channels = biological target: T2, A266G Slo2.1 channels (Homo sapiens, UniProt Q6UVM3, A266G); assay: as above; assay type: cell-based
T2 sequence (Q6UVM3 1-1135 A266G): T1 sequence (Q6UVM3 1-1135 L209T) with T209L, A266G

EC50 (L209T Slo2.1 channels): 106 µM
Hill coefficient nH of NFA activation (L209T Slo2.1 channels; L209T): 1.39 ± 0.12
NFA sensitivity of L209T relative to WT Slo2.1 (L209T Slo2.1 channels; L209T vs WT): 20 fold
EC50 (A266G Slo2.1 channels): 380 ± 30 µM
Hill coefficient nH of NFA activation (A266G Slo2.1 channels; A266G): 1.2 ± 0.03
SMILES: O=C(O)c1cccnc1Nc1cccc(C(F)(F)F)c1 [NFA, niflumic acid]
